From the NIST ThermoML archive (doi:10.1016/j.jct.2017.05.001)
± gives the expanded uncertainty stated by the source.

Test: wn = mass fraction of the nth substance listed
Conditions: Liquid; for mass density: Vibrating tube method

OCCNCCO [diethanolamine] + O
mass density [kg/m3]
Conditions	w1 = 0.0993	w1 = 0.2	w1 = 0.3002	w1 = 0.3997
333.15 K, 130000 kPa	1041.7 ± 0.7	1050.9 ± 0.8	1060.6 ± 0.8	1070.8 ± 0.8
333.15 K, 140000 kPa	1045 ± 0.8	1054.1 ± 0.8	1063.7 ± 0.8	1074 ± 0.8
353.15 K, 100 kPa	981.9 ± 0.7	992.4 ± 0.7	1003 ± 0.7	1013.9 ± 0.7
353.15 K, 500 kPa	982 ± 0.7	992.5 ± 0.7	1003.1 ± 0.7	1014 ± 0.7
353.15 K, 1000 kPa	982.2 ± 0.7	992.7 ± 0.7	1003.4 ± 0.7	1014.2 ± 0.7
353.15 K, 2000 kPa	982.6 ± 0.7	993.1 ± 0.7	1003.7 ± 0.7	1014.5 ± 0.7
353.15 K, 5000 kPa	983.9 ± 0.7	994.4 ± 0.7	1005 ± 0.7	1015.8 ± 0.7
353.15 K, 10000 kPa	986.1 ± 0.7	996.5 ± 0.7	1007.1 ± 0.7	1017.8 ± 0.7
353.15 K, 15000 kPa	988.2 ± 0.7	998.6 ± 0.7	1009.1 ± 0.7	1019.8 ± 0.7
353.15 K, 20000 kPa	990.3 ± 0.7	1000.6 ± 0.7	1011.1 ± 0.7	1021.8 ± 0.7
353.15 K, 30000 kPa	994.4 ± 0.7	1004.7 ± 0.7	1015.1 ± 0.7	1025.7 ± 0.7
353.15 K, 40000 kPa	998.5 ± 0.7	1008.5 ± 0.7	1018.9 ± 0.7	1029.4 ± 0.7
353.15 K, 50000 kPa	1002.4 ± 0.7	1012.4 ± 0.7	1022.6 ± 0.7	1033 ± 0.7
353.15 K, 60000 kPa	1006.2 ± 0.7	1016.3 ± 0.7	–	–

viscosity [mPa·s], 353.15 K
Conditions	100 kPa	5000 kPa	10000 kPa	15000 kPa	20000 kPa	25000 kPa	30000 kPa	40000 kPa	60000 kPa
Concentric cylinders viscometry, w1 = 0.1	0.474 ± 0.011	–	–	–	–	–	–	–	–
Concentric cylinders viscometry, w1 = 0.2	0.627 ± 0.014	–	–	–	–	–	–	–	–
Concentric cylinders viscometry, w1 = 0.3	0.866 ± 0.018	–	–	–	–	–	–	–	–
Concentric cylinders viscometry, w1 = 0.4	1.244 ± 0.026	–	–	–	–	–	–	–	–
Falling or rolling sphere viscometry, w1 = 0.0993	0.4595 ± 0.015	0.4583 ± 0.015	0.4614 ± 0.015	0.4631 ± 0.015	0.464 ± 0.015	0.4671 ± 0.015	0.4692 ± 0.015	0.4733 ± 0.015	0.4815 ± 0.016
Falling or rolling sphere viscometry, w1 = 0.2	0.6088 ± 0.02	0.6083 ± 0.02	0.6136 ± 0.02	0.6167 ± 0.02	0.6198 ± 0.02	0.6239 ± 0.021	0.6271 ± 0.021	0.6333 ± 0.021	0.646 ± 0.021
Falling or rolling sphere viscometry, w1 = 0.3002	0.8528 ± 0.028	0.8459 ± 0.028	0.8544 ± 0.028	0.8578 ± 0.028	0.8642 ± 0.028	0.8704 ± 0.029	0.8768 ± 0.029	0.8887 ± 0.029	0.9096 ± 0.03
Falling or rolling sphere viscometry, w1 = 0.3997	1.226 ± 0.04	1.231 ± 0.041	1.239 ± 0.041	1.247 ± 0.041	1.255 ± 0.041	1.264 ± 0.042	1.275 ± 0.042	1.292 ± 0.043	1.335 ± 0.044
